Measured values taken from patent US20250082624A1, “METHODS OF TREATING COGNITIVE IMPAIRMENT” (NeuroTherapia, Inc., priority 2023, published 2025).
Where two headings read alike, the source gives them in different places.

Assay: Phase 1b MAD plasma pharmacokinetics, non-compartmental analysis
Format: in vivo, human
Conditions: human, plasma, po
Excerpt: Methods: All study procedures were approved by the IRB, and informed consent was obtained. Three cohorts of volunteers 45-80 years of age with well-controlled comorbidities (NOAD) and one cohort of AD patients diagnosed with cognitive impairment consistent with prodromal AD per International Working Group criteria or mild AD per National Institute on Aging—Alzheimer's Association criteria (n=6 active, 2 placebo per cohort) were enrolled. Participants were admitted to the study site for the duration of the dosing and returned 7-12 days after the last dose for a safety visit. Participants received NTRX-07 (10, 30, or 90 mg) or a placebo in a double-blinded randomization orally once daily for seven days. Subjects were assessed for changes in vital signs, including maneuvers to induce lightheadedness, electrocardiograms, 24-hour electroencephalograms (EEG), and safety laboratory studies. The second cohort returned and received a single repeat dose after a standard high-fat meal. The AD cohort also underwent cognitive testing and had blood samples for biomarkers drawn. Subjects had PK sampling done after the first and final dose of the study drug. An independent safety review committee conducted a blinded safety review of adverse events and plasma levels between each cohort.
All subjects had PK sampling done after the first and final dose of the study drug.
(§1) Raw bioanalytical data were received from Nuvisan following analysis of plasma samples from each of four cohorts. PK parameters were calculated by noncompartmental analysis using standard equations. Specifically, area under the plasma concentration versus time curve (AUC) was calculated using the trapezoid rule. Maximal plasma concentration (Cmax) and time of maximal plasma concentration (Tmax) were taken directly from the data. Clearance divided by bioavailability (Cl/F) was calculated as the dose divided by the AUC. Apparent volume of distribution over bioavailability (Vd/F) was calculated as dose divided by Cmax.
With oral administration of the dose every 24 hours for 7 days, blood samples were taken over a 24-hour interval on Days 1 and 7 and before and after dosing on Day 3.
as §1, with “on Oct. 27, 2022. […]” for “following analysis of plasma samples from each of four cohorts. PK parameters were calculated by noncompartmental analysis using standard equations.”
as §1, with “on Nov. 24, 2022. […]” for “following analysis of plasma samples from each of four cohorts. PK parameters were calculated by noncompartmental analysis using standard equations.”
as §1, with “on Dec. 19, 2022. […]” for “following analysis of plasma samples from each of four cohorts. PK parameters were calculated by noncompartmental analysis using standard equations.”
Raw bioanalytical data were received from Nuvisan on Jun. 30, 2023. […] Specifically, area under the plasma concentration versus time curve (AUC) was calculated using the trapezoid rule. Maximal plasma concentration (Cmax) and time of maximal plasma concentration (Tmax) were taken directly from the data. […]

Q: For CC1(Cc2ccccc2)COc2cc(C(=O)N3CCCCC3)ccc21 (centres unmarked) [NTRX-07, 3-benzyl-3-methyl-2,3-dihydrobenzofuran-6-carboxylic acid-piperidine amide], which Cmax (10 mg, Table 10: Cohort A, 10 mg QD oral, Day 7, mean ± S.D., read-out: Cmax) is on record?
A: The Cmax was 37.7 ± 15.9 ng/mL.

Q: What about the Tmax (10 mg, Table 10: Cohort A, 10 mg QD oral, Day 7, mean ± S.D., read-out: Tmax) of the same compound?
A: The Tmax was 48 ± 18 min.

Q: And the Vd/F (10 mg, Table 10: Cohort A, 10 mg QD oral, Day 7, mean ± S.D., read-out: Vd/F)?
A: The Vd/F was 307 ± 126 L.

Q: And the Tmax (10 mg, Table 19 (interim): Cohort A, 40 mg SDD (10 mg NTRX-07) QD oral, Day 1, individual subjects, read-out: Tmax)?
A: The Tmax was 30 min.

Q: And the AUC over 24 h (AUC0-24) (10 mg, Table 19 (interim): Cohort A, 40 mg SDD (10 mg NTRX-07) QD oral, Day 1, mean ± S.D.)?
A: The AUC over 24 h (AUC0-24) was 93 ± 0.9 ng·h/mL.

Q: And the Cmax (10 mg, Table 19 (interim): Cohort A, 40 mg SDD (10 mg NTRX-07) QD oral, Day 1, mean ± S.D., read-out: Cmax)?
A: Its Cmax is 35.6 ± 12.8 ng/mL.

Q: What about the Tmax (10 mg, Table 19 (interim): Cohort A, 40 mg SDD (10 mg NTRX-07) QD oral, Day 1, mean ± S.D., read-out: Tmax) of the same compound?
A: Its Tmax is 42 ± 18 min.

Q: What about the Vd/F (10 mg, Table 19 (interim): Cohort A, 40 mg SDD (10 mg NTRX-07) QD oral, Day 1, mean ± S.D., read-out: Vd/F) of the same compound?
A: Its Vd/F is 1280 ± 544 L.

Q: And the Tmax (10 mg, Table 20 (interim): Cohort A, 40 mg SDD (10 mg NTRX-07) QD oral, Day 7, individual subjects, read-out: Tmax)?
A: The Tmax was 30 min.

Q: And the AUC over 24 h (AUC0-24) (10 mg, Table 20 (interim): Cohort A, 40 mg SDD (10 mg NTRX-07) QD oral, Day 7, mean ± S.D.)?
A: Its AUC over 24 h (AUC0-24) is 94.4 ± 66.8 ng·h/mL.

Q: And the Cmax (10 mg, Table 20 (interim): Cohort A, 40 mg SDD (10 mg NTRX-07) QD oral, Day 7, mean ± S.D., read-out: Cmax)?
A: The Cmax was 37.7 ± 15.9 ng/mL.

Q: What about the Tmax (10 mg, Table 20 (interim): Cohort A, 40 mg SDD (10 mg NTRX-07) QD oral, Day 7, mean ± S.D., read-out: Tmax) of the same compound?
A: The Tmax was 48 ± 18 min.

Q: And the Vd/F (10 mg, Table 20 (interim): Cohort A, 40 mg SDD (10 mg NTRX-07) QD oral, Day 7, mean ± S.D., read-out: Vd/F)?
A: The Vd/F was 1230 ± 506 L.

Q: And the AUC(0-t) (30 mg, Cohort B Fed, single 30 mg oral dose after high-fat meal, mean ± SD, read-out: Average of AUC24 h)?
A: Its AUC(0-t) is 390 ± 280 ng·h/mL.

Q: What about the Cmax (30 mg, Cohort B Fed, single 30 mg oral dose after high-fat meal, mean ± SD, read-out: Average of Cmax) of the same compound?
A: The Cmax was 60 ± 37 ng/mL.

Q: What about the Tmax (30 mg, Cohort B Fed, single 30 mg oral dose after high-fat meal, mean ± SD, read-out: Average of Tmax) of the same compound?
A: Its Tmax is 144 ± 108 min.

Q: And the Vd/F (30 mg, Cohort B Fed, single 30 mg oral dose after high-fat meal, mean ± SD, read-out: Average of Vd/F)?
A: The Vd/F was 699 ± 424 L.

Q: And the AUC(0-t) (30 mg, Cohort B healthy, 30 mg QD oral, Day 1, mean ± SD, read-out: Average of AUC24 h)?
A: Its AUC(0-t) is 328 ± 213 ng·h/mL.

Q: What about the Cmax (30 mg, Cohort B healthy, 30 mg QD oral, Day 1, mean ± SD, read-out: Average of Cmax) of the same compound?
A: The Cmax was 109 ± 58 ng/mL.

Q: What about the Tmax (30 mg, Cohort B healthy, 30 mg QD oral, Day 1, mean ± SD, read-out: Average of Tmax) of the same compound?
A: The Tmax was 54 ± 30 min.

Q: What about the Vd/F (30 mg, Cohort B healthy, 30 mg QD oral, Day 1, mean ± SD, read-out: Average of Vd/F) of the same compound?
A: The Vd/F was 349 ± 175 L.

Q: And the AUC(0-t) (30 mg, Cohort B healthy, 30 mg QD oral, Day 7, mean ± SD, read-out: Average of AUC24 h)?
A: The AUC(0-t) was 236 ± 186 ng·h/mL.

Q: What about the Cmax (30 mg, Cohort B healthy, 30 mg QD oral, Day 7, mean ± SD, read-out: Average of Cmax) of the same compound?
A: The Cmax was 120 ± 79 ng/mL.

Q: What about the Tmax (30 mg, Cohort B healthy, 30 mg QD oral, Day 7, mean ± SD, read-out: Average of Tmax) of the same compound?
A: The Tmax was 36 ± 12 min.

Q: What about the Vd/F (30 mg, Cohort B healthy, 30 mg QD oral, Day 7, mean ± SD, read-out: Average of Vd/F) of the same compound?
A: The Vd/F was 391 ± 235 L.

Q: And the AUC(0-t) (30 mg, Table 11: Cohort B, 30 mg QD oral, Day 1, mean ± S.D., read-out: AUClast)?
A: The AUC(0-t) was 328 ± 213 ng·h/mL.

Q: What about the Cmax (30 mg, Table 11: Cohort B, 30 mg QD oral, Day 1, mean ± S.D., read-out: Cmax) of the same compound?
A: Its Cmax is 109 ± 58 ng/mL.

Q: And the Tmax (30 mg, Table 11: Cohort B, 30 mg QD oral, Day 1, mean ± S.D., read-out: Tmax)?
A: The Tmax was 54 ± 30 min.

Q: And the Vd/F (30 mg, Table 11: Cohort B, 30 mg QD oral, Day 1, mean ± S.D., read-out: Vd/F)?
A: Its Vd/F is 349 ± 175 L.

Q: What about the Tmax (30 mg, Table 12: Cohort B, 30 mg QD oral, Day 7, individual subjects, read-out: Tmax) of the same compound?
A: Its Tmax is 30 min.

Q: What about the AUC(0-t) (30 mg, Table 12: Cohort B, 30 mg QD oral, Day 7, mean ± S.D., read-out: AUClast) of the same compound?
A: Its AUC(0-t) is 236 ± 186 ng·h/mL.

Q: What about the Cmax (30 mg, Table 12: Cohort B, 30 mg QD oral, Day 7, mean ± S.D., read-out: Cmax) of the same compound?
A: The Cmax was 120 ± 79 ng/mL.

Q: And the Tmax (30 mg, Table 12: Cohort B, 30 mg QD oral, Day 7, mean ± S.D., read-out: Tmax)?
A: Its Tmax is 36 ± 12 min.

Q: What about the Vd/F (30 mg, Table 12: Cohort B, 30 mg QD oral, Day 7, mean ± S.D., read-out: Vd/F) of the same compound?
A: Its Vd/F is 391 ± 234 L.

Q: What about the AUC(0-t) (30 mg, Table 13: Cohort B Fed, 30 mg oral, fed state, mean ± S.D., read-out: AUClast) of the same compound?
A: Its AUC(0-t) is 390 ± 280 ng·h/mL.

Q: And the Cmax (30 mg, Table 13: Cohort B Fed, 30 mg oral, fed state, mean ± S.D., read-out: Cmax)?
A: Its Cmax is 60 ± 37 ng/mL.

Q: And the Tmax (30 mg, Table 13: Cohort B Fed, 30 mg oral, fed state, mean ± S.D., read-out: Tmax)?
A: Its Tmax is 144 ± 108 min.

Q: What about the Vd/F (30 mg, Table 13: Cohort B Fed, 30 mg oral, fed state, mean ± S.D., read-out: Vd/F) of the same compound?
A: The Vd/F was 699 ± 424 L.

Q: What about the AUC(0-t) (90 mg, Cohort C healthy, 90 mg QD oral, Day 1, mean ± SD, read-out: Average of AUC24 h) of the same compound?
A: Its AUC(0-t) is 1270 ± 509 ng·h/mL.

Q: What about the Cmax (90 mg, Cohort C healthy, 90 mg QD oral, Day 1, mean ± SD, read-out: Average of Cmax) of the same compound?
A: Its Cmax is 400 ± 202 ng/mL.

Q: What about the Tmax (90 mg, Cohort C healthy, 90 mg QD oral, Day 1, mean ± SD, read-out: Average of Tmax) of the same compound?
A: Its Tmax is 138 ± 132 min.

Q: And the Vd/F (90 mg, Cohort C healthy, 90 mg QD oral, Day 1, mean ± SD, read-out: Average of Vd/F)?
A: Its Vd/F is 337 ± 316 L.

Q: What about the AUC(0-t) (90 mg, Cohort C healthy, 90 mg QD oral, Day 7, mean ± SD, read-out: Average of AUC24 h) of the same compound?
A: The AUC(0-t) was 741 ± 357 ng·h/mL.

Q: What about the Cmax (90 mg, Cohort C healthy, 90 mg QD oral, Day 7, mean ± SD, read-out: Average of Cmax) of the same compound?
A: The Cmax was 189 ± 95 ng/mL.

Q: What about the Tmax (90 mg, Cohort C healthy, 90 mg QD oral, Day 7, mean ± SD, read-out: Average of Tmax) of the same compound?
A: Its Tmax is 78 ± 60 min.

Q: And the AUC(0-t) (90 mg, Cohort D AD patients, 90 mg QD oral, Day 1, mean ± SD, read-out: Average of AUC24 h)?
A: Its AUC(0-t) is 1560 ± 605 ng·h/mL.

Q: And the Cmax (90 mg, Cohort D AD patients, 90 mg QD oral, Day 1, mean ± SD, read-out: Average of Cmax)?
A: Its Cmax is 478 ± 154 ng/mL.

Q: What about the Tmax (90 mg, Cohort D AD patients, 90 mg QD oral, Day 1, mean ± SD, read-out: Average of Tmax) of the same compound?
A: The Tmax was 66 ± 36 min.

Q: What about the Vd/F (90 mg, Cohort D AD patients, 90 mg QD oral, Day 1, mean ± SD, read-out: Average of Vd/F) of the same compound?
A: The Vd/F was 211 ± 90 L.

Q: What about the AUC(0-t) (90 mg, Cohort D AD patients, 90 mg QD oral, Day 7, mean ± SD, read-out: Average of AUC24 h) of the same compound?
A: Its AUC(0-t) is 806 ± 196 ng·h/mL.
